This assay deals with MV-4-11 cells. As to the kind of experiment: Gene expression microarray analysis (Affymetrix PrimeView) and GSEA. The settings on record: ProbeSet 11722463_a_at; LIST B. The format is cell-based, human. More on the design: RFU PODN (11730768_x_at) / Fold change /veh PODN (11730768_x_at) / RFU LINC00158 (11744669_a_at) / Fold change /veh LINC00158 (11744669_a_at) / RFU DUSP10 (11751237_a_at) / Fold change /veh DUSP10 (11751237_a_at) / RFU ID3 (11757404_x_at) / Fold change /veh ID3 (11757404_x_at) / RFU PLEKHG5 (11737974_s_at) / Fold change /veh PLEKHG5 (11737974_s_at) / RFU LRRC4B (11730491_at) / Fold change /veh LRRC4B (11730491_at) / RFU GIMAP4 (11747438_a_at) / Fold change /veh GIMAP4 (11747438_a_at) / RFU KRT8 (11758183_x_at) / Fold change /veh KRT8 (11758183_x_at) / RFU CNN1 (11734310_a_at) / Fold change /veh CNN1 (11734310_a_at) / RFU VPS37D (11726825_at) / Fold change /veh VPS37D (11726825_at) / RFU C10orf10 (11716522_x_at) / Fold change /veh C10orf10 (11716522_x_at) / RFU KIR2DL2 /// KIR2DL4 /// KIR2DL5A /// KIR2DL5B /// KIR2DS1 /// KIR2DS2 /// KIR2DS3 /// KIR2DS4 /// KIR3DL3 /// KIR3DL3 /// KIR3DS1 (11738374_at) / Fold change /veh KIR2DL2 /// KIR2DL4 /// KIR2DL5A /// KIR2DL5B /// KIR2DS1 /// KIR2DS2 /// KIR2DS3 /// KIR2DS4 /// KIR3DL3 /// KIR3DL3 /// KIR3DS1 (11738374_at) / RFU C1QL1 (11718748_at) / Fold change /veh C1QL1 (11718748_at) / RFU TMPRSS4 (11747572_a_at) / Fold change /veh TMPRSS4 (11747572_a_at) / RFU HAMP (11756126_x_at) / Fold change /veh HAMP (11756126_x_at) / RFU RNFT2 (11725882_a_at) / Fold change /veh RNFT2 (11725882_a_at) / RFU NR4A2 (11747474_a_at) / Fold change /veh NR4A2 (11747474_a_at) / RFU ABCC12 (11746883_a_at) / Fold change /veh ABCC12 (11746883_a_at) / RFU TMEM136 (11760407_x_at) / Fold change /veh TMEM136 (11760407_x_at) / RFU CLDN22 /// WWC2 (11732394_at) / Fold change /veh CLDN22 /// WWC2 (11732394_at) / RFU HLA-DPB1 (11760878_x_at) / Fold change /veh HLA-DPB1 (11760878_x_at) / RFU SPINT1 (11716480_a_at) / Fold change /veh SPINT1 (11716480_a_at) / RFU GAP43 (11754022_s_at) / Fold change /veh GAP43 (11754022_s_at) / RFU A4GNT (11735810_at) / Fold change /veh A4GNT (11735810_at) / RFU PRB3 (11715151_x_at) / Fold change /veh PRB3 (11715151_x_at) / RFU TUBB4B (11761932_at) / Fold change /veh TUBB4B (11761932_at) / RFU CAPN14 (11732068_a_at) / Fold change /veh CAPN14 (11732068_a_at) / RFU TMCC2 (11721928_a_at) / Fold change /veh TMCC2 (11721928_a_at) / RFU IRGQ (11745062_a_at) / Fold change /veh IRGQ (11745062_a_at) / RFU FAM174B (11720279_a_at) / Fold change /veh FAM174B (11720279_a_at) / RFU TMPRSS4 (11748680_a_at) / Fold change /veh TMPRSS4 (11748680_a_at) / RFU FAM212B (11763350_a_at) / Fold change /veh FAM212B (11763350_a_at) / RFU PLEKHG5 (11743358_a_at) / Fold change /veh PLEKHG5 (11743358_a_at) / RFU ZSCAN30 (11745921_a_at) / Fold change /veh ZSCAN30 (11745921_a_at) / RFU CMKLR1 (11741424_a_at) / Fold change /veh CMKLR1 (11741424_a_at) / RFU LOC101060620 /// MAPK8IP1 (11723275_at) / Fold change /veh LOC101060620 /// MAPK8IP1 (11723275_at) / RFU SPTSSB (11747773_x_at) / Fold change /veh SPTSSB (11747773_x_at) / RFU PRSS12 (11739890_at) / Fold change /veh PRSS12 (11739890_at) / RFU BIN1 (11741810_x_at) / Fold change /veh BIN1 (11741810_x_at) / RFU WNT11 (11732464_a_at) / Fold change /veh WNT11 (11732464_a_at) / RFU C10orf10 (11716521_a_at) / Fold change /veh C10orf10 (11716521_a_at) / RFU C5orf56 (11738089_at) / Fold change /veh C5orf56 (11738089_at) / RFU CYB561 (11721691_x_at) / Fold change /veh CYB561 (11721691_x_at) / RFU ANKRD19P (11752326_a_at) / Fold change /veh ANKRD19P (11752326_a_at) / RFU OR2T12 /// OR2T33 /// OR2T8 (11738714_s_at) / Fold change /veh OR2T12 /// OR2T33 /// OR2T8 (11738714_s_at) / RFU VCAN (11748164_a_at) / Fold change /veh VCAN (11748164_a_at) / RFU JSRP1 (11732532_at) / Fold change /veh JSRP1 (11732532_at) / RFU KRTAP10-11 (11738290_x_at) / Fold change /veh KRTAP10-11 (11738290_x_at) / RFU MYO3A (11730013_a_at) / Fold change /veh MYO3A (11730013_a_at) / RFU EBF3 (11725865_a_at) / Fold change /veh EBF3 (11725865_a_at) / RFU CAMK2N1 (11719241_x_at) / Fold change /veh CAMK2N1 (11719241_x_at) / RFU C5orf56 (11738088_a_at) / Fold change /veh C5orf56 (11738088_a_at) / RFU OLFML3 (11715873_a_at) / Fold change /veh OLFML3 (11715873_a_at) / RFU LOC100653217 /// NTM (11731650_a_at) / Fold change /veh LOC100653217 /// NTM (11731650_a_at) / RFU MAPK11 (11762145_a_at) / Fold change /veh MAPK11 (11762145_a_at) / RFU FIZ1 (11724087_x_at) / Fold change /veh FIZ1 (11724087_x_at) / RFU OASL (11726364_x_at) / Fold change /veh OASL (11726364_x_at) / RFU SOX15 (11748057_x_at) / Fold change /veh SOX15 (11748057_x_at) / RFU CD79A (11719716_a_at) / Fold change /veh CD79A (11719716_a_at) / RFU HIST1H1D (11736915_at) / Fold change /veh HIST1H1D (11736915_at) / RFU CASKIN2 (11723855_a_at) / Fold change /veh CASKIN2 (11723855_a_at) / RFU LOC730098 (11760151_x_at) / Fold change /veh LOC730098 (11760151_x_at) / RFU OR4N2 (11742367_at) / Fold change /veh OR4N2 (11742367_at) / RFU PRRT2 (11749266_a_at) / Fold change /veh PRRT2 (11749266_a_at) / RFU SNX32 (11753110_a_at) / Fold change /veh SNX32 (11753110_a_at) / RFU CDHR5 (11726645_a_at) / Fold change /veh CDHR5 (11726645_a_at) / RFU RCAN1 (11760418_a_at) / Fold change /veh RCAN1 (11760418_a_at) / RFU FAM167A (11723789_a_at) / Fold change /veh FAM167A (11723789_a_at) / RFU FAM26E (11764081_at) / Fold change /veh FAM26E (11764081_at) / RFU ISYNA1 (11749810_s_at) / Fold change /veh ISYNA1 (11749810_s_at) / RFU ACY1 (11761880_at) / Fold change /veh ACY1 (11761880_at) / RFU 11764098_at / Fold change /veh 11764098_at / RFU SAMD14 (11745864_x_at) / Fold change /veh SAMD14 (11745864_x_at) / RFU NPB (11741838_a_at) / Fold change /veh NPB (11741838_a_at) / RFU TMPRSS6 (11731388_a_at) / Fold change /veh TMPRSS6 (11731388_a_at) / RFU KRTAP10-2 (11738614_at) / Fold change /veh KRTAP10-2 (11738614_at) / RFU ARHGAP8 /// PRR5-ARHGAP8 (11727945_x_at) / Fold change /veh ARHGAP8 /// PRR5-ARHGAP8 (11727945_x_at) / RFU KRTAP5-7 /// NADSYN1 (11734609_at) / Fold change /veh KRTAP5-7 /// NADSYN1 (11734609_at) / RFU RASL12 (11751679_a_at) / Fold change /veh RASL12 (11751679_a_at) / RFU CDKN2B (11736163_a_at) / Fold change /veh CDKN2B (11736163_a_at) / RFU PRF1 (11729649_at) / Fold change /veh PRF1 (11729649_at) / RFU, ZNF638 /// ZNF638-IT1 / Fold change vs veh, ZNF638 /// ZNF638-IT1 / RFU, PANK3 / Fold change vs veh, PANK3 / RFU, SH3YL1 / Fold change vs veh, SH3YL1 / RFU, ZEB2 / Fold change vs veh, ZEB2 / RFU, NRIP1 / Fold change vs veh, NRIP1 / RFU, PTTG1IP / Fold change vs veh, PTTG1IP / RFU, CAPN2 / Fold change vs veh, CAPN2 / RFU, MED14 / Fold change vs veh, MED14 / RFU, SNORA58 / Fold change vs veh, SNORA58 / RFU, C1orf63 / Fold change vs veh, C1orf63 / RFU, LRRFIP1 / Fold change vs veh, LRRFIP1 / RFU, NDUFAF7 / Fold change vs veh, NDUFAF7 / RFU, SLC12A2 / Fold change vs veh, SLC12A2 / RFU, IBTK / Fold change vs veh, IBTK / RFU, ESF1 / Fold change vs veh, ESF1 / Fold change vs veh, TMEM50B / RFU, TAOK1 / Fold change vs veh, TAOK1 / RFU, ACBD3 / Fold change vs veh, ACBD3 / RFU, TMA16 / Fold change vs veh, TMA16 / RFU, RWDD3 / Fold change vs veh, RWDD3 / RFU, BCAT1 / Fold change vs veh, BCAT1 / RFU, EDEM3 / Fold change vs veh, EDEM3 / RFU, TMEM33 / Fold change vs veh, TMEM33 / RFU, WDR75 / Fold change vs veh, WDR75 / RFU, AHCTF1 / Fold change vs veh, AHCTF1 / RFU, TFRC / Fold change vs veh, TFRC / RFU, ZDHHC17 / Fold change vs veh, ZDHHC17 / RFU, NOM1 / Fold change vs veh, NOM1 / RFU, ARL8B / Fold change vs veh, ARL8B / RFU, ZBTB11 / Fold change vs veh, ZBTB11 / RFU, TAMM41 / Fold change vs veh, TAMM41 / RFU, KIAA1704 /// LOC100996395 / Fold change vs veh, KIAA1704 /// LOC100996395 / RFU, ING1 / Fold change vs veh, ING1 / RFU, TRMT61B / Fold change vs veh, TRMT61B / RFU, FUBP3 / Fold change vs veh, FUBP3 / RFU, TP53 / Fold change vs veh, TP53 / RFU, TNKS2 / Fold change vs veh, TNKS2 / RFU, ZFP14 / Fold change vs veh, ZFP14 / RFU, ACTR2 / Fold change vs veh, ACTR2 / RFU, PPP3R1 / Fold change vs veh, PPP3R1 / RFU, PIK3R1 / Fold change vs veh, PIK3R1 / RFU, HNRNPA1 / Fold change vs veh, HNRNPA1 / RFU, RNF170 / Fold change vs veh, RNF170 / RFU, ZNF28 / Fold change vs veh, ZNF28 / RFU, RNGTT / Fold change vs veh, RNGTT / RFU, OGT / Fold change vs veh, OGT / RFU, BRD1 / Fold change vs veh, BRD1 / RFU, MARS / Fold change vs veh, MARS / RFU, ZNF655 / Fold change vs veh, ZNF655 / RFU, FAHD1 / Fold change vs veh, FAHD1 / RFU, BDP1 / Fold change vs veh, BDP1 / RFU, LRRCC1 / Fold change vs veh, LRRCC1 / RFU, ARID1A / Fold change vs veh, ARID1A / RFU, ZNF146 / Fold change vs veh, ZNF146 / RFU, ZNF330 / Fold change vs veh, ZNF330 / RFU, GPN3 / Fold change vs veh, GPN3 / RFU, C9orf123 / Fold change vs veh, C9orf123 / RFU, N4BP2L2 / Fold change vs veh, N4BP2L2 / RFU, ARFIP1 / Fold change vs veh, ARFIP1 / RFU, FAM179B / Fold change vs veh, FAM179B / RFU, BCL10 / Fold change vs veh, BCL10 / RFU, UHRF1BP1L / Fold change vs veh, UHRF1BP1L / RFU, BET1 / Fold change vs veh, BET1 / RFU, CNOT2 / Fold change vs veh, CNOT2 / RFU, ZNF268 / Fold change vs veh, ZNF268 / Fold change vs veh, ZNF507 / RFU, DGCR2 / Fold change vs veh, DGCR2 / RFU, WDSUB1 / Fold change vs veh, WDSUB1 / Fold change vs veh, HSP90B1 /// MIR3652 / RFU, ADSS / Fold change vs veh, ADSS / RFU, GK / Fold change vs veh, GK / RFU, ZNF148 / Fold change vs veh, ZNF148 / RFU, TAF9 / Fold change vs veh, TAF9 / RFU, SLC1A5 / Fold change vs veh, SLC1A5 / RFU, SLMO2 / Fold change vs veh, SLMO2 / RFU, ABCC4 / Fold change vs veh, ABCC4 / RFU, LOC101060439 /// RAP1B / Fold change vs veh, LOC101060439 /// RAP1B / RFU, RFX7 / Fold change vs veh, RFX7 / RFU, GTPBP10 / Fold change vs veh, GTPBP10 / RFU, CNEP1R1 / Fold change vs veh, CNEP1R1 / RFU, BIVM-ERCC5 /// ERCC5 / Fold change vs veh, BIVM-ERCC5 /// ERCC5 / RFU, ILF3 / Fold change vs veh, ILF3 / RFU 11762660_at / Fold change /veh 11762660_at / RFU VCAN (11757783_s_at) / Fold change /veh VCAN (11757783_s_at) / RFU DDX43 (11728927_at) / Fold change /veh DDX43 (11728927_at) / RFU KRT8 (11758188_x_at) / Fold change /veh KRT8 (11758188_x_at) / RFU NKD1 (11759106_at) / Fold change /veh NKD1 (11759106_at) / RFU SRD5A1 (11742802_a_at) / Fold change /veh SRD5A1 (11742802_a_at) / RFU TPSAB1 /// TPSB2 (11721975_s_at) / Fold change /veh TPSAB1 /// TPSB2 (11721975_s_at) / RFU GSTM3 (11746129_a_at) / Fold change /veh GSTM3 (11746129_a_at) / RFU IL23R (11737362_x_at) / Fold change /veh IL23R (11737362_x_at) / RFU TMEM51 (11727254_a_at) / Fold change /veh TMEM51 (11727254_a_at) / RFU PIWIL2 (11732686_x_at) / Fold change /veh PIWIL2 (11732686_x_at) / RFU ORM1 (11744905_x_at) / Fold change /veh ORM1 (11744905_x_at) / RFU CCDC152 (11743942_at) / Fold change /veh CCDC152 (11743942_at) / RFU ECM1 (11717891_a_at) / Fold change /veh ECM1 (11717891_a_at) / RFU IL23R (11748794_a_at) / Fold change /veh IL23R (11748794_a_at) / RFU TNFAIP8L3 (11732012_x_at) / Fold change /veh TNFAIP8L3 (11732012_x_at) / RFU MBOAT4 (11741988_at) / Fold change /veh MBOAT4 (11741988_at) / RFU 11764193_at / Fold change /veh 11764193_at / RFU TMEM53 (11763286_at) / Fold change /veh TMEM53 (11763286_at) / RFU MAGEB2 (11727129_at) / Fold change /veh MAGEB2 (11727129_at) / RFU TMEM200A (11744735_a_at) / Fold change /veh TMEM200A (11744735_a_at) / RFU CCDC152 (11751479_a_at) / Fold change /veh CCDC152 (11751479_a_at) / RFU FAM211A (11726209_a_at) / Fold change /veh FAM211A (11726209_a_at) / RFU RGS16 (11746705_a_at) / Fold change /veh RGS16 (11746705_a_at) / RFU VCAN (11755009_s_at) / Fold change /veh VCAN (11755009_s_at) / RFU RHOB (11743442_s_at) / Fold change /veh RHOB (11743442_s_at) / RFU RGS16 (11720943_a_at) / Fold change /veh RGS16 (11720943_a_at) / RFU RGS16 (11720944_at) / Fold change /veh RGS16 (11720944_at) / RFU, VPS4B / Fold change vs veh, VPS4B / RFU, CREB1 / Fold change vs veh, CREB1 / RFU, DNAJC13 / Fold change vs veh, DNAJC13 / RFU, GNAQ / Fold change vs veh, GNAQ / RFU, CDK5R1 / Fold change vs veh, CDK5R1 / RFU, ZRANB3 / Fold change vs veh, ZRANB3 / RFU, CUL4A / Fold change vs veh, CUL4A / RFU, CCNY / Fold change vs veh, CCNY / RFU, UFL1 / Fold change vs veh, UFL1 / RFU, COG3 / Fold change vs veh, COG3 / RFU, DIAPH2 / Fold change vs veh, DIAPH2 / RFU, SKA2 / Fold change vs veh, SKA2 / RFU, AFF3 / Fold change vs veh, AFF3 / RFU, LMF1 / Fold change vs veh, LMF1 / RFU, IPO11 / Fold change vs veh, IPO11 / RFU, DFFB / Fold change vs veh, DFFB / RFU, FOXP1 / Fold change vs veh, FOXP1 / RFU, CARD8 / Fold change vs veh, CARD8 / RFU, STRN3 / Fold change vs veh, STRN3 / RFU, ADK / Fold change vs veh, ADK / RFU, RASSF2 / Fold change vs veh, RASSF2 / RFU, WIPF1 / Fold change vs veh, WIPF1 / RFU, LARP1B / Fold change vs veh, LARP1B / RFU, RASA1 / Fold change vs veh, RASA1 / RFU, RB1 / Fold change vs veh, RB1 / RFU, PPFIA1 / Fold change vs veh, PPFIA1 / RFU, MAT2A / Fold change vs veh, MAT2A / RFU, CCT5 / Fold change vs veh, CCT5 / RFU, WDR92 / Fold change vs veh, WDR92 / RFU, CUX1 / Fold change vs veh, CUX1 / RFU, TTC7A / Fold change vs veh, TTC7A / RFU, TMEM135 / Fold change vs veh, TMEM135 / RFU, DEPTOR / Fold change vs veh, DEPTOR / RFU, CPM / Fold change vs veh, CPM / RFU, DNAJB6 / Fold change vs veh, DNAJB6 / RFU, CACNA2D3 / Fold change vs veh, CACNA2D3 / RFU, DTX4 / Fold change vs veh, DTX4 / RFU, TFCP2 / Fold change vs veh, TFCP2 / RFU, GMCL1 /// GMCL1P1 / Fold change vs veh, GMCL1 /// GMCL1P1 / RFU, AEBP2 / Fold change vs veh, AEBP2 / RFU, SNHG1 /// SNORD22 /// SNORD25 /// SNORD26 /// SNORD27 /// SNORD28 /// SNORD29 /// SNORD31 / Fold change vs veh, SNHG1 /// SNORD22 /// SNORD25 /// SNORD26 /// SNORD27 /// SNORD28 /// SNORD29 /// SNORD31 / Fold change (Aza/veh), C12orf56 (ProbeSet 11735607_a_at) / Fold change (ACY-1035/veh), C12orf56 (ProbeSet 11735607_a_at) / Fold change (Aza/veh), FGFR1OP (ProbeSet 11751329_s_at) / Fold change (ACY-1035/veh), FGFR1OP (ProbeSet 11751329_s_at) / Fold change (Aza/veh), VPS36 (ProbeSet 11739960_a_at) / Fold change (ACY-1035/veh), VPS36 (ProbeSet 11739960_a_at) / RFU SYPL1 (11715823_x_at) / Fold change /veh SYPL1 (11715823_x_at) / RFU IGFBP7 (11715501_s_at) / Fold change /veh IGFBP7 (11715501_s_at) / RFU REEP3 (11722064_at) / Fold change /veh REEP3 (11722064_at) / RFU IGLL1 (11728026_x_at) / Fold change /veh IGLL1 (11728026_x_at): dose or concentration left out as unconfirmed.

The text below walks through data of PMC5218480 (PLoS ONE, 2017).

Structures are written as SMILES.

Turning to `Nc1ccc(-c2cccs2)cc1NC(=O)c1ccc2c(c1)cc(C1CC1)n2CCN1CCOCC1` [ACY-1035], the “RFU, TNKS2” value was 53.51 RFU.
